According to ChEMBL document CHEMBL5608224, “Novel KRAS Inhibitors for Treating Non-small Cell Lung Cancer” (ACS Med Chem Lett, 2024):

Assay: Inhibition of recombinant GMPPNP-loaded KRAS-G12C mutant (unknown origin) /recombinant GST-tagged RAF RBD (unknown origin) complex assessed as disruption preincubated with KRAS G12C for 20 mins followed by RAF addition and measured after 20 mins by HTRF assay
Design: species or system Homo sapiens

Row | SMILES | IC50 [nM]
1 | C#Cc1cccc2cccc(-c3ccc4c(N(C)[C@@H]5CCN(C(=O)/C(F)=C/c6ccccn6)C5)nc(OC[C@@]56CCCN5C[C@H](F)C6)nc4c3F)c12 | 20
2 | C#Cc1c(F)ccc2cc(O)cc(-c3ccc4c(N5CCN(C(=O)/C(F)=C/c6nccs6)CC5)nc(OC[C@@]56CCCN5C[C@H](F)C6)nc4c3F)c12 | 2
3 | CN1CCC[C@H]1COc1nc(N2CCN(C(=O)/C(F)=C/c3ncccn3)[C@@H](CC#N)C2)c2ccc(-c3cc(O)cc4ccccc34)c(F)c2n1 | 10

Continued by falling IC50, values first:

Row | IC50 [nM] | SMILES
4 | 16 | CN1CCC[C@H]1COc1nc(N2CCN(C(=O)/C(F)=C/c3nccs3)[C@@H](CC#N)C2)c2ccc(-c3cc(O)cc4ccccc34)c(F)c2n1
5 | 11 | N#CC[C@H]1CN(c2nc(OC[C@@]34CCCN3C[C@H](F)C4)nc3c(F)c(-c4cc(O)cc5ccccc45)ccc23)CCN1C(=O)/C(F)=C/c1ncccn1
6 | 6.4 | C#Cc1c(F)ccc2cc(O)cc(-c3ccc4c(N5CCN(C(=O)/C(F)=C/c6ccccn6)CC5)nc(OC[C@@]56CCCN(C)[C@]5(C)CCC6)nc4c3F)c12
